Experimental data published in patent US4281121A, “1,3,4-Thiadiazole-2-carboxylic acid derivatives, process for making the same and fungicidal and nematocidal compositions containing same” (Schering Aktiengesellschaft, priority 1978, dated 1981).
Where two headings read alike, the source gives them in different places.

What was measured:
Helminthosporium gram = conditions: about 5 weeks
Description: Treatment of barley seeds infested with Helminthosporium gram
After emergence, the plants were subjected to illumination for 12 hours per day. After about 5 weeks the infested plants were counted and the total number of plants for each test were also counted. The active agents tested were used as pulverulent compositions.

Piricularia oryzae = format: in vivo; conditions: concentration of active agent 0.1 (percentages); 5 days
[1] = system: Helminthosporium gramineum; assay: Seed treatment in open field tests for infestation by Helminthosporium gramineum (barley); format: in vivo
Description: Seed treatment in open field tests for infestation by Helminthosporium gramineum
The active agents were used in the form of pulverulent compositions. After about 8 months in case of winter barley and after about 3 months in case of summer barley the infested plants were counted and the activity was calculated by the formula [formula]

Septoria nodorum = assay: Treatment of oat seeds against Septoria nodorum; format: in vivo; conditions: 50 g active agent/100 kg seeds; 4 weeks
Description: Effects of the treatment of oat seeds against Septoria nodorum
They were then seeded on a moist substrate for germination. As a control untreated seeds were likewise seeded. At about 6° C. the seed was incubated in an air-conditioned chamber until after 4 weeks the proportion of diseased seeds could be determined and the activity of the fungicidal compounds was calculated on the basis of the following formula: [formula]
The active agents were applied in the form of 20% concentration pulverulent compositions.

Pythium ultimum = assay: Threshold concentration test for use of the compounds against Pythium ultimum (infested soil, garden peas); format: in vivo; design: key to root evaluation (1-4): 4: white roots without fungous necrosis; 3: white roots, minor fungous necrosis; 2: brown roots, already more pronounced fungous necrosis; 1: heavy fungous necrosis, roots rotted; conditions: for root evaluation (1-4): 3 weeks; for number of sound peas: 20 grains per dish, 3 weeks at 20-24° C.
How it was run: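 Pulverulent agents at 20% concentration mixed evenly into soil heavily infested with Pythium ultimum, then garden peas ('Wunder von Kelvedon', 20 per dish) sown at once. After three weeks at 20–24 °C in a hothouse, sound peas counted and roots scored on a 1–4 scale.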

Tilletia caries [2] = assay: Treatment of oat seeds infested with Tilletia caries (spore germination); format: in vivo
Fusarium nivale = assay: Treatment of rye seeds against Fusarium nivale; format: in vivo; conditions: 100 g/100 kg; about 4 weeks
Description: Treatment of rye seeds against Fusarium nivale
Rye seeds with a natural infestation by Fusarium nivale were seeded in earth filled pots and left for germination at about 6° C. Part of the seeds was treated before seeding with the active agents as appears from the subsequent table and part was untreated. After emergence of the seedlings the plants were illuminated with artificial light for 12 hours each day. After about 4 weeks the degree of infestation was determined in percentages. The fungicidal activity was calculated on the basis of the following formula: [formula]
The active agents were used in the form of 20% concentration compositions.

[3] = system: root gall nematodes (Meloidogyne sp.); assay: Threshold concentration test with root gall nematodes (cucumber, infested soil); format: in vivo; conditions: 28 days at 24-27° C.
Excerpt: Threshold concentration test with root gall nematodes (Meloidogyne sp.)
20% concentration pulverulent active agents as listed in the table below were mixed in a uniform manner with a soil which had been heavily infested by root gall nematodes. After waiting for 3 days the treated soil was placed in two clay dishes of a capacity of 0.5 liter. 10 grain of cucumber seeds of the type "Guntruud" were placed into each dish.
Thereafter, the contents of the dishes were permitted to develop at a temperature of 24° to 27° C. for a time of 28 days in a hothouse. The cucumber roots were then washed out and were examined in a water bath regarding nematode infestation. The reduction of the infestation by the active agents as compared with untreated control material was determined in percentages.
The nematocidal activity was calculated by the formula
A=the infestation in the untreated control material and
B=the infestation after treatment.

Plasmopara viticola = assay: Prophylactic leaf treatment of grapevines in the hothouse against Plasmopara viticola; format: in vivo
How it was run: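 Grapevines (5–8 leaves) sprayed to runoff with compound as 20% spray powder, then after drying inoculated on leaf undersides with sporangial suspension (~20,000/ml). Incubated at 22–24 °C, saturated humidity, 3–4 days normal humidity (30–70%), then one day saturated; activity from mean % infested leaf area per treatment.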

Tilletia caries [4] = assay: Seed treatment in open field tests regarding infestation by Tilletia caries (oats); format: in vivo; conditions: summer oats, about 4 months
[5] = summer barley, 50 g active agent/100 kg barley, about 3 months
[6] = summer barley, 100 g active agent/100 kg barley, about 3 months
[7] = winter barley, 50 g active agent/100 kg barley, about 8 months
[8] = winter barley, 100 g active agent/100 kg barley, about 8 months

SMILES	% activity (Helminthosporium gram; 20 g active agent per 100 kg) [%]	% activity (Helminthosporium gram; 50 g active agent per 100 kg) [%]	% activity [1, 5] [%]	% activity [1, 6] [%]	% activity [1, 7] [%]	% activity [1, 8] [%]	% activity (Septoria nodorum) [%]	root evaluation (1-4) (Pythium ultimum; 20 mg/l soil)	number of sound peas (Pythium ultimum; 20 mg/l soil)	root evaluation (1-4) (Pythium ultimum; 40 mg/l soil)	number of sound peas (Pythium ultimum; 40 mg/l soil)	root evaluation (1-4) (Pythium ultimum; 80 mg/l soil)	number of sound peas (Pythium ultimum; 80 mg/l soil)	% activity (Tilletia caries [2]; 10 g active agent per 100 kg) [%]	% activity (Tilletia caries [2]; 20 g active agent per 100 kg) [%]	% activity (Tilletia caries [2]; 50 g active agent per 100 kg) [%]	% activity (Fusarium nivale) [%]	% activity (Helminthosporium gram; 10 g active agent per 100 kg) [%]	further results
CCS(=O)(=O)c1nnc(C(=O)N(C)C)s1 [5-ethylsulfonyl-1,3,4-thiadiazole-2-carboxylic acid-dimethylamide]	94	100	99.5	100	99.5	100	86	4	13	4	13	4	15	100	100	100	100	–	% activity (Piricularia oryzae): 90%
CSc1nnc(C#N)s1 [5-methylthio-1,3,4-thiadiazole-2-carbonitrile]	–	–	–	–	–	–	–	–	–	–	–	–	–	–	–	–	–	–	Percentage reduction of infestation ([3]; 50 mg per liter soil): 95%; Percentage reduction of infestation ([3]; 100 mg per liter soil): 99%; Percentage reduction of infestation ([3]; 200 mg per liter soil): 100%
CCS(=O)(=O)c1nnc(C(=O)NC)s1 [5-ethylsulfonyl-1,3,4-thiadiazole-2-carboxylic acid-methylamide]	91	97	100	100	100	100	72	4	17	4	15	4	19	100	100	100	100	–	–
C=CCNC(=O)c1nnc(S(=O)(=O)CC)s1 [5-ethylsulfonyl-1,3,4-thiadiazole-2-carboxylic acid-allylamide]	100	100	100	100	–	–	72	1	11	4	17	4	16	100	100	100	94	100	% activity ([1]; summer barley, 25 g active agent/100 kg barley, about 3 months): 97%; % activity (Plasmopara viticola; concentration of active agent 0.001 (unit not given)): 98%; % activity (Plasmopara viticola; concentration of active agent 0.005 (unit not given)): 96%; % activity (Plasmopara viticola; concentration of active agent 0.025 (unit not given)): 99.4%
CC[S+]([O-])c1nnc(C(N)=O)s1 (stereo not shown) [5-ethylsulfinyl-1,3,4-thiadiazole-2-carboxamide]	100	100	–	–	–	–	–	2	15	4	20	4	20	96	100	–	93	99	% activity (Tilletia caries [4]; 25 g active agent/100 kg): 100%; % activity (Tilletia caries [4]; 50 g active agent/100 kg): 100%; % activity (Tilletia caries [2]; 5 g active agent per 100 kg): 78%
